Bounds are passed on as bounds.

One data set concerns UO-31. The data set is described as follows: cells. Conditions: Homo sapiens.
Another data set relates to UACC-257. The data set is described as follows: cells. The conditions noted are these: Homo sapiens.
For a further data set, the system named is PC-3. The experiment in a line: cells. Conditions: Homo sapiens.
For a further data set, the system named is HCT-116. The data set is described as follows: cells. Conditions: Homo sapiens.
In a further data set the test system is T-470. The data set is described as follows: NCI in-vitro cytotoxicity screen, Breast Cancer panel. The format is cell-based, human. The conditions noted are these: T-470.
Test in data set [1]: as above
Protocol: (§1) The compounds of this invention were also tested against the panel of 60 human cancer cell lines at the National Cancer Institute, Bethesda, Md. […] The cytotoxicity studies were conducted using a 48 hour exposure, and measuring the optical density of sulforhodamine B-derived color.
The format is cell-based, human. The conditions noted are these: Homo sapiens, read-out: LC50.

In a further data set the test system is LOX IMVI. The experiment in a line: cells. Conditions: Homo sapiens.
A further data set relates to OVCAR-3. The experiment in a line: cells. Conditions: Homo sapiens.
A further data set deals with TK-10. The data set is described as follows: cells. Conditions: Homo sapiens.
For a further data set, the system named is COLO 205. The data set is described as follows: NCI in-vitro cytotoxicity screen, Colon Cancer panel. It is filed as cell-based. Conditions: Homo sapiens.
The test system of the next data set is ACHN. The data set is described as follows: cells. The conditions noted are these: Homo sapiens.
For data set [2], the system named is panel of 60 human cancer cell lines. Conditions: 48 hour exposure.

Protocol for COLO 205: as §1
Protocol for T-470: as §1

As usually defined, the GI50 is the concentration that inhibits growth by half. As for `COC(=O)c1[nH]c2c(O)cc(NC(=O)c3cc4cc(OC)c(OC)c(OC)c4[nH]3)c(CCCl)c2c1C(=O)OC` [Compound 22, Dimethyl 4-(2-chloroethyl)-7-hydroxy-5-(5,6,7-trimethoxyindole-2-carboxamido)indole-2,3-dicarboxylate], the GI50 in the data set on UO-31 (UO-31) was 98.8 nM; with UACC-257 (UACC-257), 170 nM; with PC-3 (PC-3), 61.7 nM; with HCT-116 (HCT-116) it was 65.6 nM; with T-470 (Homo sapiens), 171 nM; in the data set on LOX IMVI it was 81.7 nM. The GI50 was determined as 139 nM in the data set with OVCAR-3 (OVCAR-3), 272 nM in the data set with TK-10 (TK-10), 233 nM with COLO 205 (COLO 205) and 44.6 nM in the data set with ACHN. Besides, the CC50 was > 50 µM in the data set on UO-31 (UO-31, read-out: LC50); > 50 µM with UACC-257 (UACC-257, read-out: LC50); 10.5 µM in the data set with PC-3 (PC-3, read-out: LC50); 33.2 µM in the data set with HCT-116 (HCT-116, read-out: LC50); > 50 µM in data set [1]; 25.6 µM with LOX IMVI (read-out: LC50). Further, the CC50 is 23 µM with OVCAR-3 (OVCAR-3, read-out: LC50); > 50 µM with TK-10 (TK-10, read-out: LC50); > 50 µM in the data set with COLO 205 (COLO 205, read-out: LC50); > 50 µM in the data set on ACHN (read-out: LC50). In addition, the “Percent Growth” value in the data set with T-470 (Log10 Concentration −4.3) is 14%. In [2], the “cytotoxic activity in the NCI screen” value was “activity in the micromolar range”.
Regarding “4-(2-Chloroethyl)-3-[5-(5-benzofuran-2-carboxamido)indole-2-carboxamido]phenol [Compound 1]”, the GI50 in the data set with HCT-15 was found to be 1910 nM; in the data set on M14, 1490 nM; in the data set on CAKI-1, 2300 nM; in the data set on SNB-75 it was 18.6 µM. The TGI came to 4.89E-06 Molar in the data set on HCT-15, 3.19E-06 Molar in the data set with M14, 7.19E-06 Molar in the data set on CAKI-1 and 3.32E-05 Molar with SNB-75.

Values taken from US20030073731A1, “Compositions and methods of the use thereof achiral analogues of CC-1065 and the duocarmycins” (priority 2000, published 2003).
